Measurements taken from patent publication US9969755B2, “Photodynamic therapy photosensitizers” (The Royal Institution for the Advancement of …, priority 2016, dated 2018).

Assays:
[1] = system: clinical biofilm-producing methicillin-resistant Staphylococcus aureus (MRSA); test: Photodynamic inactivation of MRSA with ciprofloxacin as stressor; assay type: cell-based
From the text: The strain was a clinical biofilm-producing methicillin-resistant Staphylococcus aureus (MRSA). […] Samples “without exposure to light” were kept wrapped with aluminum foil. Samples “with exposure to light” were irradiated with a LED panel having the following characteristics: 1.6 mW/cm^2 power output with a maxima (centered) at 520 nm and a full width at half maximum (FWHM) of 31 nm. The LED panel consisted of 5 lamps and was placed 10 cm from the sample.

[2] = Activation of compounds 7 and 8 with dicumyl peroxide (cumyloxyl radicals); assay type: physicochemical; details: 9 with respect to 7; reaction with cumyloxyl radicals/ROS, 1 equivalent sacrificial PMHC
Method: Compounds 7 and 8 were oxidized/activated in air equilibrated acetonitrile solution upon photolysis of a 100 μM dicumyl peroxide. Irradiation was performed within a fluorimeter to generate ROS upon exciting with ultraviolet light at 263 nm (2.4 mW/cm^2). The fluorescence intensity at the emission maxima of the probes was monitored over time.
Activation of the dormant photosensitizer 7 or 8 (deactivation of PeT) following their reaction with ROS was subsequently tested in the presence of alkoxyl radicals. These ROS were generated at a constant rate upon photolysis at 263 nm of an air equilibrated 100 μM dicumyl peroxide solution in acetonitrile. We followed over time the increase in fluorescence intensity (drop in PeT) to monitor the extent of activation, see FIG. 16. Activation was complete once the intensity reached a plateau.^28,45 At this point, the trap segment in 7 and 8 reacted to completion with alkoxyl radicals to generate 9 and 10, respectively. […] Deactivation of PeT in the singlet excited state in turn manifested in the ca. 7-fold and 2-fold emission enhancements recorded for 9 vs 7, and 10 vs 8, respectively (FIG. 16).

With `CC1=C(Br)C(C)=[N+]2C1=C(CC1(C)CCc3c(C)c(O)c(C)c(C)c3O1)c1c(C)c(Br)c(C)n1[B-]2(F)F` (stereo not drawn) [Compound 7, 8-((6-Hydroxy-2,5,7,8-tetramethylchroman-2-yl)-methyl)-2,6-dibromo-1,3,5,7-tetramethyl] the “colony forming units upon prolonged illumination, single agent” value ([1]; light 0 to 60 minutes, 1.6 mW/cm^2, 520 nm, ciprofloxacin 1 microgram per milliliter only or Br2B-PMHC 10 micromolar only) was “no observed reduction in colony forming units”, the “colony forming units upon illumination in the presence of ciprofloxacin” value ([1]; light, 1 microgram per milliliter ciprofloxacin and 5 or 10 micromolar Br2B-PMHC) was “clear reduction in colony forming units” and the “enhancement in φΔ^D (^1O2 production) on activation” value [2] was ~40 fold.
